Results from US7462600B2, “Macrolides” (Pfizer Inc, priority 2004, dated 2008).
Converted amounts (≈) assume the structure as drawn.

How the values were obtained:
Type in all cases: cell-based
[1] = test system: Streptococcus pyogenes 1079; test: MIC, microtiter broth dilution (NCCLS M100-S14), S. pyogenes 1079 (ermB); settings: Streptococcus pyogenes 1079
In short: (§1)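 MIC read-out follows NCCLS M100-S14 interpretation of microtiter tray broth dilution. Test agents are prepared as DMSO stocks at 40 mg/ml.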

[2] = test system: Streptococcus pneumoniae 1016; test: MIC, microtiter broth dilution (NCCLS M100-S14), S. pneumoniae 1016 (susceptible); settings: Streptococcus pneumoniae 1016
In short: as §1

[3] = test system: Streptococcus pneumoniae 1095; settings: Streptococcus pneumoniae 1095; microtiter broth dilution
In short: as §1

[4] = test system: Streptococcus pneumoniae 1175; settings: Streptococcus pneumoniae 1175; microtiter broth dilution
In short: as §1

[5] = test system: Haemophilus influenzae 1218; test: MIC, microtiter broth dilution (NCCLS M100-S14), H. influenzae 1218 (susceptible); settings: Haemophilus influenzae 1218
In short: as §1

| SMILES | MIC S. pyogenes 1079 [1] [µg/mL] | MIC S. pneumo. 1016 [2] [µg/mL] | MIC S. pneumo. 1095 [3] [µg/mL] | MIC S. pneumo. 1175 [4] [µg/mL] | MIC H. influenzae 1218 [5] [µg/mL] |
| --- | --- | --- | --- | --- | --- |
| CCC1OC(=O)C(C)C(=O)C(C)C(OC2OC(C)CC(N(C)C)C2O)C(C)(OC)CC(C)C(=O)C(C)C2N(C3CN(Cc4c[nH]nc4-c4ccc(F)cc4)C3)C(=O)OC12C (centres unmarked) [Example 1.42, (1H-3-[4-fluorophenyl]-pyrazol-4-yl)methyl] | >64.00 | <0.06 | <0.06 | 0.25 (≈ 0.297 µM) | 2 (≈ 2.38 µM) |
| CCC1OC(=O)C(C)C(=O)C(C)C(OC2OC(C)CC(N(C)C)C2O)C(C)(OC)CC(C)C(=O)C(C)C2N(C3CN(Cc4cccc(-c5ccccn5)c4)C3)C(=O)OC12C (centres unmarked) [Example 1.43, 3-(pyridin-2-yl)-benzyl] | 16 (≈ 19.2 µM) | <0.06 | <0.06 | <0.06 | 2 (≈ 2.4 µM) |
| CCc1noc(-c2cccc(CN3CC(N4C(=O)OC5(C)C(CC)OC(=O)C(C)C(=O)C(C)C(OC6OC(C)CC(N(C)C)C6O)C(C)(OC)CC(C)C(=O)C(C)C45)C3)c2)n1 (centres unmarked) [Example 1.44, 3-(3-ethyl-[1,2,4]oxadiazol-5-yl)benzyl] | >64.00 | <0.06 | <0.06 | 0.5 (≈ 0.585 µM) | 16 (≈ 18.7 µM) |
| CCC1OC(=O)C(C)C(=O)C(C)C(OC2OC(C)CC(N(C)C)C2O)C(C)(OC)CC(C)C(=O)C(C)C2N(C3CN(Cc4ccc(-n5cccn5)nc4)C3)C(=O)OC12C (centres unmarked) [Example 1.45] | 16 (≈ 19.4 µM) | <0.06 | <0.06 | 0.5 (≈ 0.606 µM) | 4 (≈ 4.85 µM) |
| CCC1OC(=O)C(C)C(=O)C(C)C(OC2OC(C)CC(N(C)C)C2O)C(C)(OC)CC(C)C(=O)C(C)C2N(C3CN(Cc4ccnc(-c5nc(C)no5)c4)C3)C(=O)OC12C (centres unmarked) [Example 1.46, (2-[3-methyl-(1,2,4)oxadiazol-5-yl]pyridin-4-yl)methyl] | >64.00 | <0.06 | <0.06 | 0.25 (≈ 0.297 µM) | 8 (≈ 9.51 µM) |
| CCC1OC(=O)C(C)C(=O)C(C)C(OC2OC(C)CC(N(C)C)C2O)C(C)(OC)CC(C)C(=O)C(C)C2N(C3CN(Cc4cccc(-c5cnco5)c4)C3)C(=O)OC12C (centres unmarked) [Example 1.47, 3-(oxazol-5-yl)benzyl] | 64 (≈ 77.6 µM) | <0.06 | <0.06 | <0.06 | 0.25 (≈ 0.303 µM) |
| CC[C@H]1OC(=O)[C@H](C)C(=O)[C@H](C)[C@@H](O[C@@H]2O[C@H](C)C[C@H](N(C)C)[C@H]2O)[C@](C)(OC)C[C@@H](C)C(=O)[C@H](C)[C@H]2N(C3CN(C(C)c4ccnc5ccccc45)C3)C(=O)O[C@]12C (some centres unmarked) [Example 1.62, 3-descladinosyl-11,12-dideoxy-6-O-methyl-3-oxo-12,11-(oxycarbonyl-(1-(1-(quinolin-4-yl)-ethyl)-azetidin-3-yl)-imino)-erythromycin A] | 2 (≈ 2.43 µM) | <0.06 | <0.06 | <0.06 | 0.5 (≈ 0.608 µM) |
| CC[C@H]1OC(=O)[C@H](C)C(=O)[C@H](C)[C@@H](O[C@@H]2O[C@H](C)C[C@H](N(C)C)[C@H]2O)[C@](C)(OC)C[C@@H](C)C(=O)[C@H](C)[C@H]2N(C3CN(C(C)c4ccnc5ccccc45)C3)C(=O)O[C@]12C (some centres unmarked) [Example 1.63, 3-descladinosyl-11,12-dideoxy-6-O-methyl-3-oxo-12,11-(oxycarbonyl-(1-(1-(quinolin-4-yl)-ethyl)-azetidin-3-yl)-imino)-erythromycin A] | 2 (≈ 2.43 µM) | <0.06 | <0.06 | 0.12 (≈ 0.146 µM) | 1 (≈ 1.22 µM) |
| CCCC(c1ccnc2ccccc12)N1CC(N2C(=O)OC3(C)C(CC)OC(=O)C(C)C(=O)C(C)C(OC4OC(C)CC(N(C)C)C4O)C(C)(OC)CC(C)C(=O)C(C)C23)C1 (centres unmarked) [Example 1.64, 3-descladinosyl-11,12-dideoxy-6-O-methyl-3-oxo-12,11-(oxycarbonyl-(1-(1-(quinolin4-yl)-butyl)-azetidin-3-yl)-imino)-erythromycin A] | 1 (≈ 1.17 µM) | <0.06 | <0.06 | <0.06 | 1 (≈ 1.17 µM) |
| CCCC(c1ccnc2ccccc12)N1CC(N2C(=O)OC3(C)C(CC)OC(=O)C(C)C(=O)C(C)C(OC4OC(C)CC(N(C)C)C4O)C(C)(OC)CC(C)C(=O)C(C)C23)C1 (centres unmarked) [Example 1.65, 3-descladinosyl-11,12-dideoxy-6-O-methyl-3-oxo-12,11-(oxycarbonyl-(1-(1-(quinolin4-yl)-butyl)-azetidin-3-yl)-imino)-erythromycin A] | 8 (≈ 9.4 µM) | <0.06 | <0.06 | <0.06 | 1 (≈ 1.17 µM) |
| CCC1OC(=O)C(C)C(=O)C(C)C(OC2OC(C)CC(N(C)C)C2O)C(C)(OC)CC(C)C(=O)C(C)C2N(C3CN(C(c4ccccc4)c4ccncc4)C3)C(=O)OC12C (centres unmarked) [Example 1.69, 3-descladinosyl-11,12-dideoxy-6-O-methyl-3-oxo-12,11-(oxycarbonyl-(1-(phenyl-(pyridin-4-yl)-methyl)-azetidin-3-yl)-imino)erythromycin A] | 8 (≈ 9.58 µM) | <0.06 | <0.06 | <0.06 | 1 (≈ 1.2 µM) |
| CCC1OC(=O)C(C)C(=O)C(C)C(OC2OC(C)CC(N(C)C)C2O)C(C)(OC)CC(C)C(=O)C(C)C2N(C3CN(Cc4ccc(OC)c5ncccc45)C3)C(=O)OC12C (centres unmarked) [Example 1.70, 3-descladinosyl-11,12-dideoxy-6-O-methyl-3-oxo-12,11-(oxycarbonyl-(1-(8-methoxyquinoline-5-methyl)-azetidin-3-yl)-imino)-erythromycin A] | 2 (≈ 2.38 µM) | <0.063 | <0.063 | <0.063 | 1 (≈ 1.19 µM) |
| CCC1OC(=O)C(C)C(=O)C(C)C(OC2OC(C)CC(N(C)C)C2O)C(C)(OC)CC(C)C(=O)C(C)C2N(C3CN(Cc4c(OC)cnc5ccccc45)C3)C(=O)OC12C (centres unmarked) [Example 1.71, 3-descladinosyl-11,12-dideoxy-6-O-methyl-3-oxo-12,11-(oxycarbonyl-(1-(3-methoxyquinoline-4-methyl)-azetidin-3-yl)-imino)-erythromycin A] | <0.063 | <0.063 | <0.063 | <0.063 | 1 (≈ 1.19 µM) |
